The values below come from paper PMC4030805 (Analytical Chemistry, 2014).

The target of this assay is biotinylated Bcl-xL immobilized on streptavidin magnetic beads (Homo sapiens, UniProt Q07817). Kind of assay: AMMP target-binding assay with in vitro translated peptides. The following applies: concentration taken from the HA tag competition assay (Figure 3c).
Chain of biotinylated Bcl-xL immobilized on streptavidin magnetic beads (Q07817 1-209 limits assumed): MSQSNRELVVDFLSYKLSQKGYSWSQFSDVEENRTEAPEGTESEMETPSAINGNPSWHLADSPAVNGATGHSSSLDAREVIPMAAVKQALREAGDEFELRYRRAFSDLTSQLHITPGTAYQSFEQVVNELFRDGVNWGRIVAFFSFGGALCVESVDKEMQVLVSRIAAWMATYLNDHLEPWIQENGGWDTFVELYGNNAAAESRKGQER

For “H-MIETITIYKYKKAADHFSMSMGSGSGSYPYDVPDYA-NH2 [Pep1]”, the “peptide concentration giving robust signal over background” value was found to be 100 pM.
